Results published in patent US20240270762A1, “PENICILLIN-BINDING PROTEIN INHIBITORS” (priority 2021, published 2024).
Values after ≈ are worked out from the molar mass of the structure shown.

Key:
P. aeruginosa ATCC 27853 = assay: microbe, parasite or virus in culture; format: cell-based; conditions: Pseudomonas aeruginosa, ATCC27853, read-out: Minimum inhibitory concentration, P. aeruginosa ATCC 27853
A. baumannii ATCC 17978 = assay: microbe, parasite or virus in culture; format: cell-based; conditions: Acinetobacter baumannii, ATCC17978, read-out: MIC, A. baumannii ATCC 17978
P. aeruginosa ATCC 35151 = assay: microbe, parasite or virus in culture; format: cell-based; conditions: Pseudomonas aeruginosa, ATCC35151, read-out: Minimum inhibitory concentration, P. aeruginosa ATCC 35151
[1] = system: P. aeruginosa (ΔmexAB-oprM); assay: Broth microdilution MIC in iron-depleted CAMHB (IDM); format: cell-based; conditions: Pseudomonas aeruginosa; iron-depleted CAMHB (IDM); […]; read-out: Minimum inhibitory concentration, P. aeruginosa ΔmexAB-oprM
P. aeruginosa CDC-0090 = assay: microbe, parasite or virus in culture; format: cell-based; conditions: Pseudomonas aeruginosa, CDC0090, read-out: Minimum inhibitory concentration, P. aeruginosa CDC-0090
A. baumannii 1258916 = assay: microbe, parasite or virus in culture; format: cell-based, Acinetobacter baumannii; conditions: Acinetobacter baumannii, 1258916, read-out: MIC, A. baumannii 1258916
A. baumannii CDC-0033 = assay: microbe, parasite or virus in culture; format: cell-based; conditions: Acinetobacter baumannii, CDC0033, read-out: MIC, A. baumannii CDC-0033
A. baumannii CDC-0036 = assay: microbe, parasite or virus in culture; format: cell-based; conditions: Acinetobacter baumannii, CDC0036, read-out: MIC, A. baumannii CDC-0036
A. baumannii CDC-0045 = assay: microbe, parasite or virus in culture; format: cell-based; conditions: Acinetobacter baumannii, CDC0045, read-out: MIC, A. baumannii CDC-0045
A. baumannii CDC-0083 = assay: microbe, parasite or virus in culture; format: cell-based; conditions: Acinetobacter baumannii, CDC0083, read-out: MIC, A. baumannii CDC-0083
B. pseudomallei Bp82 = assay: microbe, parasite or virus in culture; format: cell-based; conditions: Burkholderia pseudomallei, BP82, read-out: Minimum inhibitory concentration, B. pseudomallei Bp82

Row | Structure (SMILES) | MIC (P. aeruginosa ATCC 27853) | MIC (A. baumannii ATCC 17978) | MIC (P. aeruginosa ATCC 35151) | MIC [1] | MIC (P. aeruginosa CDC-0090) | MIC (A. baumannii 1258916) | MIC (A. baumannii CDC-0033) | MIC (A. baumannii CDC-0036) | MIC (A. baumannii CDC-0045) | MIC (A. baumannii CDC-0083) | MIC (B. pseudomallei Bp82)
1 | CS(=O)(=O)N1CCN(C(=O)N[C@@H](C(=O)N[C@H]2Cc3ccc(F)c(C(=O)O)c3OB2O)c2ccc(P(=O)(O)O)c(F)c2)C1=O (single isomer, unassigned) [Example 19] | > 128 µg/mL | 8 to 16 µg/mL (≈ 12.4 to 24.8 µM) | 2 to 4 µg/mL (≈ 3.09 to 6.19 µM) | 32 to 64 µg/mL (≈ 49.5 to 99 µM) | > 128 µg/mL | > 128 µg/mL | > 128 µg/mL | > 128 µg/mL | > 128 µg/mL | > 128 µg/mL | 
2 | O=C(O)c1c(F)ccc2c1OB(O)[C@@H](NC(=O)C(NC(=O)N1CCN(Cc3ccc(O)c(O)c3Cl)C(=O)C1=O)c1ccc(P(=O)(O)O)cc1)C2 (stereo partly drawn) [Example 8, (3R)-3-(2-(4-(2-chloro-3,4-dihydroxybenzyl)-2,3-dioxopiperazine-1-carboxamido)-2-(4-phosphonophenyl)acetamido)-7-fluoro-2-hydroxy-3,4-dihydro-2H-benzo[e][1,2]oxaborinine-8-carboxylic acid] | < 1 µg/mL | < 1 µg/mL | < 1 µg/mL | < 1 µg/mL | 2 to 4 µg/mL (≈ 2.72 to 5.44 µM) | < 1 µg/mL | < 1 µg/mL | 2 to 4 µg/mL (≈ 2.72 to 5.44 µM) | < 1 µg/mL | < 1 µg/mL | < 1 µg/mL
3 | O=C(O)c1c(F)ccc2c1OB(O)[C@@H](NC(=O)C(NC(=O)N1CCN(Cc3ccc(O)c(O)c3Cl)C(=O)C1=O)c1ccc(P(=O)(O)O)c(F)c1)C2 (stereo partly drawn) [Example 23, (3R)-3-(2-(4-(2-chloro-3,4-dihydroxybenzyl)-2,3-dioxopiperazine-1-carboxamido)-2-(3-fluoro-4-phosphonophenyl)acetamido)-7-fluoro-2-hydroxy-3,4-dihydro-2H-benzo[e][1,2]oxaborinine-8-carboxylic acid] | < 1 µg/mL | < 1 µg/mL | < 1 µg/mL | < 1 µg/mL | 8 to 16 µg/mL (≈ 10.6 to 21.3 µM) | < 1 µg/mL | < 1 µg/mL | < 1 µg/mL | < 1 µg/mL | < 1 µg/mL | 
4 | O=C(O)c1cccc2c1OB(O)[C@@H](NC(=O)C(NC(=O)N1CCN(Cc3ccc(O)c(O)c3Cl)C(=O)C1=O)c1ccc(P(=O)(O)O)cc1)C2 (stereo partly drawn) [Example 24, (3R)-3-(2-(4-(2-chloro-3,4-dihydroxybenzyl)-2,3-dioxopiperazine-1-carboxamido)-2-(4-phosphonophenyl)acetamido)-2-hydroxy-3,4-dihydro-2H-benzo[e][1,2]oxaborinine-8-carboxylic acid] | 2 to 4 µg/mL (≈ 2.79 to 5.58 µM) | < 1 µg/mL | < 1 µg/mL | < 1 µg/mL | 8 to 16 µg/mL (≈ 11.2 to 22.3 µM) | < 1 µg/mL | < 1 µg/mL | < 1 µg/mL | < 1 µg/mL | < 1 µg/mL | 
5 | O=C(O)c1c(F)ccc2c1OB(O)[C@@H](NC(=O)C(NC(=O)N1CCN(Cc3cc(F)c(O)c(O)c3Cl)C(=O)C1=O)c1ccc(P(=O)(O)O)cc1)C2 (stereo partly drawn) [Example 45, (3R)-3-(2-(4-(2-chloro-5-fluoro-3,4-dihydroxybenzyl)-2,3-dioxopiperazine-1-carboxamido)-2-(4-phosphonophenyl)acetamido)-7-fluoro-2-hydroxy-3,4-dihydro-2H-benzo[e][1,2]oxaborinine-8-carboxylic acid] | < 1 µg/mL | < 1 µg/mL | < 1 µg/mL | < 1 µg/mL | < 1 µg/mL | < 1 µg/mL | < 1 µg/mL | < 1 µg/mL | < 1 µg/mL | < 1 µg/mL | 
6 | O=C(O)c1c(F)ccc2c1OB(O)[C@@H](NC(=O)C(NC(=O)N1CCN(Cc3ccc(O)c(O)c3Cl)C1=O)c1ccc(P(=O)(O)O)cc1)C2 (stereo partly drawn) [Example 46, (3R)-3-(2-(3-(2-chloro-3,4-dihydroxybenzyl)-2-oxoimidazolidine-1-carboxamido)-2-(4-phosphonophenyl)acetamido)-7-fluoro-2-hydroxy-3,4-dihydro-2H-benzo[e][1,2]oxaborinine-8-carboxylic acid] | 2 to 4 µg/mL (≈ 2.83 to 5.66 µM) |  | < 1 µg/mL | < 1 µg/mL | 2 to 4 µg/mL (≈ 2.83 to 5.66 µM) |  |  |  |  |  | 
7 | O=C(N[C@@H](C(=O)N[C@H]1Cc2cccc(C(=O)O)c2OB1O)c1ccc(P(=O)(O)O)cc1)c1ccc(O)c(O)c1Cl [Example 49, (R)-3-((R)-2-(2-chloro-3,4-dihydroxybenzamido)-2-(4-phosphonophenyl)acetamido)-2-hydroxy-3,4-dihydro-2H-benzo[e][1,2]oxaborinine-8-carboxylic acid] | 2 to 4 µg/mL (≈ 3.39 to 6.77 µM) | < 1 µg/mL | < 1 µg/mL | < 1 µg/mL | 2 to 4 µg/mL (≈ 3.39 to 6.77 µM) | > 128 µg/mL | > 128 µg/mL | > 128 µg/mL | > 128 µg/mL | > 128 µg/mL | 
8 | O=C(NCCN1CCN(C(=O)NC(C(=O)N[C@H]2Cc3ccc(F)c(C(=O)O)c3OB2O)c2ccc(P(=O)(O)O)cc2)C(=O)C1=O)c1ccc(O)c(O)c1Cl (stereo partly drawn) [Example 120, (3R)-3-(2-(4-(2-(2-chloro-3,4-dihydroxybenzamido)ethyl)-2,3-dioxopiperazine-1-carboxamido)-2-(4-phosphonophenyl)acetamido)-7-fluoro-2-hydroxy-3,4-dihydro-2H-benzo[e][1,2]oxaborinine-8-carboxylic acid] | < 1 µg/mL | < 1 µg/mL | < 1 µg/mL | < 1 µg/mL | < 1 µg/mL | < 1 µg/mL | 2 to 4 µg/mL (≈ 2.53 to 5.05 µM) | 8 to 16 µg/mL (≈ 10.1 to 20.2 µM) | < 1 µg/mL | < 1 µg/mL | 
